From patent publication EP1976513B1 (priority 2006, dated 2007)
Where two headings read alike, the source gives them in different places.

Legend:
[1] = target: human serotonin reuptake transporter (Homo sapiens, UniProt P31645); experiment: cell-based
[2] = target: T1, human dopamine reuptake transporter (Homo sapiens, UniProt Q01959); experiment: cell-based
T1 construct: expressed in transfected cells; host or cells: CHO-K1 or HEK293

[3] = recombinant human serotonin transporter (SERT), read-out: Human IC50 (nM) hSERT
[4] = recombinant human dopamine transporter (DAT), read-out: Human IC50 (nM) hDAT
[5] = Human IC50 (nM) hSERT, recombinant human serotonin transporter (SERT)
[6] = read-out: Human IC50 (nM) hSERT

human serotonin reuptake transporter, sequence (P31645 whole entry): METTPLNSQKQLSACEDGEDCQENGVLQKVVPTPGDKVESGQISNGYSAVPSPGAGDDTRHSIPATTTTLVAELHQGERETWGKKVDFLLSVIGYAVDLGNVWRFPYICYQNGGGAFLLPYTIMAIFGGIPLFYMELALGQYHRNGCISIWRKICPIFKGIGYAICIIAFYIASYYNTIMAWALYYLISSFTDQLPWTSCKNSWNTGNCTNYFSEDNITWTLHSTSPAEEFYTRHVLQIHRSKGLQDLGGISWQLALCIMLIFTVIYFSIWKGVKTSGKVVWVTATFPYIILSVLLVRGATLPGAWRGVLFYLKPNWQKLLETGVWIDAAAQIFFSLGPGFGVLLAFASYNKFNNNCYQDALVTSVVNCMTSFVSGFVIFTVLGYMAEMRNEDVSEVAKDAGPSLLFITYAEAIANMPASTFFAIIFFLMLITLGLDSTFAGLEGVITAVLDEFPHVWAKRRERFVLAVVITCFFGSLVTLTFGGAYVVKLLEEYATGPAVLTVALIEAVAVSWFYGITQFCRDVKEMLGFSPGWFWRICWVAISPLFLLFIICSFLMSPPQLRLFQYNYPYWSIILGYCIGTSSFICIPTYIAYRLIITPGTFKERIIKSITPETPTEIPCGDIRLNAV
T1 sequence (Q01959 whole entry): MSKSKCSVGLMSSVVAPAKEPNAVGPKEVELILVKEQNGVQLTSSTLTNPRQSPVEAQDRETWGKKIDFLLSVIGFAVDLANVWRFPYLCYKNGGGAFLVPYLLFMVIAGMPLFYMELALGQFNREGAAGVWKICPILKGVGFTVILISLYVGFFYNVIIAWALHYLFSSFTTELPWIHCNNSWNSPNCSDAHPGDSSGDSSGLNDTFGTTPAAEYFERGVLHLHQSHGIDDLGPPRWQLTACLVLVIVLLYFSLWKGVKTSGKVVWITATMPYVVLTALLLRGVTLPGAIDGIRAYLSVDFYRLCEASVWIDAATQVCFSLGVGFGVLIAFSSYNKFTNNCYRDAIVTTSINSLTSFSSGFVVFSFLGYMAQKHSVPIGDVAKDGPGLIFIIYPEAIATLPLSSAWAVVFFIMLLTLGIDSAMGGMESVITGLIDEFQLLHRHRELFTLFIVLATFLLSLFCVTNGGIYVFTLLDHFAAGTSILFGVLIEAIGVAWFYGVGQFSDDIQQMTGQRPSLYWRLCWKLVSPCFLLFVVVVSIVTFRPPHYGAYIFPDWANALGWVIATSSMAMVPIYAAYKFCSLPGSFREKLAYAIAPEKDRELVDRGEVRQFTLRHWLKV

| SMILES | IC50 [1, 3] [nM] | IC50 [2, 4] [nM] | IC50 [1, 5] [nM] | also measured |
| --- | --- | --- | --- | --- |
| CNCC1(c2ccc(OC)cc2)CCCCC1O (single isomer, unassigned) [139 E2, cis-2-((methylamino)methyl)-2-(4-methoxyphenyl)cyclohexanol] | > 10000 | > 10000 | – | – |
| CC1(O)CCCC(CN)(c2ccc(Cl)c(Cl)c2)C1 (single isomer, unassigned) [193 E1, 3-Aminomethyl-3-(3,4-dichloro-phenyl)-1-methyl-cyclohexanol] | 416 | 266 | – | – |
| CNCC1(c2ccc(Cl)c(Cl)c2)CCC(OC)CC1 (centres unmarked) [Compound 259, 1-(1-(3,4-dichlorophenyl)-4-methoxycyclohexyl)-N-methylmethanamine] | 5890 | 665 | – | – |
| NCC1(c2ccc(Cl)c(Cl)c2)CCC(O)C1 (stereo not drawn) [cis 167, 3-(aminomethyl)-3-(3,4-dichlorophenyl)cyclopentanol] | – | 2220 | > 10000 | – |
| CN(C)CC1(c2ccc(Cl)c(Cl)c2)CC=CCC1 (centres unmarked) [Compound 72, 1-(1-(3,4-dichlorophenyl)cyclohex-3-enyl)-N,N-dimethylmethanamine] | – | 1.7 | – | IC50 ([1]; Human IC50 (nM) hSERT): 136 nM |
| CC(N)C1(c2ccc(-c3ccoc3)cc2)CCCCC1 (centres unmarked) [Compound 20, 1-(1-(4-(furan-3-yl)phenyl)cyclohexyl)ethanamine] | 24 | 275 | – | – |
| CN(C)CC1(c2ccc3ccccc3c2)CCC(O)CC1 (centres unmarked) [Compound 229, 4-((dimethylamino)methyl)-4-(naphthalen-2-yl)cyclohexanol] | 11 | – | – | IC50 ([2]; read-out: Human IC50 (nM) hDAT): 40 nM |
| CNCC1(c2ccc3ccccc3c2)CC=CCC1 (racemic) [Compound 292, N-methyl-1-(1-(naphthalen-2-yl)cyclohex-3-enyl)methanamine] | – | – | – | IC50 [1, 6]: 360 nM; IC50 ([2]; Human IC50 (nM) hDAT): 89 nM |
| CN(C)CC1(c2ccc(Cl)c(Cl)c2)CCC(Oc2ccccc2)CC1 (centres unmarked) [Compound 266, 1-(1-(3,4-dichlorophenyl)-4-phenoxycyclohexyl)-N,N-dimethylmethanamine] | – | – | – | IC50 [1, 6]: 168 nM; IC50 ([2]; read-out: Human IC50 (nM) hDAT): 859 nM |
| CNCC1(c2ccc(Cl)c(Cl)c2)CCC(=O)CC1 [Compound 289, 4-(3,4-Dichloro-phenyl)-4-methylaminomethyl-cyclohexanone] | 469 | 282 | – | – |
| COC1CCC(CN)(c2ccc(Cl)c(Cl)c2)CC1 (centres unmarked) [Compound 257, (1-(3,4-dichlorophenyl)-4-methoxycyclohexyl)methanamine] | 2080 | 2000 | – | – |
| CNCC1(c2ccc(Cl)c(Cl)c2)CC=CC1 [Compound 168, 1-(1-(3,4-dichlorophenyl)cyclopent-3-enyl)-N-methylmethanamine] | – | 108 | 1470 | – |
| CN(C)CC1(c2ccc(OC(F)(F)F)cc2)CCC(C)(O)CC1 (centres unmarked) [Compound 248, 4-((dimethylamino)methyl)-1-methyl-4-(4-(trifluoromethoxy)phenyl)cyclohexanol] | 159 | 7250 | – | – |
| NCC1(c2cccc(C(F)(F)F)c2)CCCCC1 [Compound 36, (1-(3-(trifluoromethyl)phenyl)-cyclohexyl)methanamine] | – | > 10000 | 6550 | – |
| NCC1(c2ccc(C(F)(F)F)cc2)CCCCC1 [Compound 34, (1-(4-(trifluoromethyl)phenyl)-cyclohexyl)methanamine] | – | 5320 | > 10000 | – |
| NCC1(c2ccc(Cl)c(Cl)c2)CCC(O)C1 (stereo not drawn) [trans 167, 3-(aminomethyl)-3-(3,4-dichlorophenyl)cyclopentanol] | – | 145 | 4910 | – |
